Reference: US20160101125A1, “COMPOSITIONS FOR USE IN CARTILAGE BREAKDOWN” (NESTEC S.A., priority 2013, published 2016)

Experiments:
Format in all cases: cell-based, Bos Taurus
Conditions in all cases: 1.5 μM, 3 days
COX-2 mRNA = COX-2 mRNA expression in bovine primary chondrocytes in alginate beads (real-time PCR, relative to GAPDH)
Method: The foot of a young cow was washed to remove soil. The skin was removed from the foot. The articulation was opened transversally. Intra articular ligaments were transected. The opened articulation was washed with phosphate buffered saline. With a scalpel blade, full thickness slices of cartilage were dissected out and collected in DMEM high glucose with 10 mM hepes and 1% Penicillin-Streptomycin. Slices of cartilage were washed in DMEM high glucose with 10 mM hepes and 1% Penicillin-Streptomycin.
Cartilage was then digested successively by 0.5 mg/ml of hyluronidase during 30 minutes, 1.0 mg/ml of pronase E during 60 minutes and 1.0 mg/ml of collagenase overnight under slow agitation. […]
Total RNA was isolated from pool of 40 beads and isolated using RNeasy kit from Qiagen. cDNA was obtained by reverse transcription of RNA with the Primescript 1st strand cDNA Synthesis kit from Takara. mRNA expression of ADAMTS-5, COX-2, MMP-13 and GAPDH were quantified in real-time PCR (SYBR Green)
FIGS. 1 to 3 show mRNA expression of ADAMTS-5, COX-2 and MMP-13 normalized by GAPDH mRNA expression after 3 days of culture. Data were expressed as fold change in gene expression compared to negative control (cells cultured in complete medium). Results were calculated according to the 2^−ΔΔCT method.
IL1a interleukin-1 alpha 10 ng/ml Data were expressed as median±S.E. Median (2 experiments of 3 replicates each). […]

ADAMTS-5 mRNA = ADAMTS-5 mRNA expression in bovine primary chondrocytes in alginate beads (real-time PCR, relative to GAPDH)
MMP-13 mRNA = MMP-13 mRNA expression in bovine primary chondrocytes in alginate beads (real-time PCR, relative to GAPDH)
[1] = absence of IL1a (normal conditions)
[2] = presence of IL1a 10 ng/ml (disease conditions)

O=c1c(O)c(-c2ccc(O)c(O)c2)oc2cc(O)cc(O)c12 [QRC, quercetin]
decrease: COX-2 mRNA expression relative to GAPDH (COX-2 mRNA; [2]) | ADAMTS-5 mRNA expression relative to GAPDH (ADAMTS-5 mRNA; [1]) | ADAMTS-5 mRNA expression relative to GAPDH (ADAMTS-5 mRNA; [2]) | MMP-13 mRNA expression relative to GAPDH (MMP-13 mRNA; [1]) | MMP-13 mRNA expression relative to GAPDH (MMP-13 mRNA; [2])
reduce: COX-2 mRNA expression relative to GAPDH (COX-2 mRNA; [1])
